# From patent publication US10800741B2 (ANCUREALL PHARMACEUTICAL (SHANGHAI) CO., LTD., priority 2017, dated 2020)
# Read-outs that look alike come from different tables or passages of the source.
# What was measured:
# Format in all cases: cell-based, Human
# Hep3B2 (FGFR3/4+++) = assay: In vitro growth inhibition of Hep3B2 tumor cells (MTT/CCK8); settings: in vitro growth inhibition (or induction of apoptosis), cells cultured 3 to 5 days, MTT (CCK8), read-out: IC50 Hep3B2 (FGFR3/4+++)
# MOLM-13 (FLT3-ITD) = assay: In vitro growth inhibition of MOLM-13 tumor cells (MTT/CCK8); settings: in vitro growth inhibition (or induction of apoptosis), cells cultured 3 to 5 days, MTT (CCK8), read-out: IC50 MOLM-13 (FLT3-ITD)
# KATO III (FGFR2 amp) = assay: In vitro growth inhibition of KATO III tumor cells (MTT/CCK8); settings: in vitro growth inhibition (or induction of apoptosis), cells cultured 3 to 5 days, MTT (CCK8), read-out: IC50 KATO III (FGFR2 amp)
# KCL-22 (BCR-ABL) = assay: In vitro growth inhibition of KCL-22 tumor cells (MTT/CCK8); settings: in vitro growth inhibition (or induction of apoptosis), cells cultured 3 to 5 days, MTT (CCK8), read-out: IC50 KCL-22 (BCR-ABL)
# Karpas 299 (NPM-ALK) = assay: In vitro growth inhibition of Karpas 299 tumor cells (MTT/CCK8); settings: in vitro growth inhibition (or induction of apoptosis), cells cultured 3 to 5 days, MTT (CCK8), read-out: IC50 Karpas 299 (NPM-ALK)
# H1703 (PDGFRa amp) = assay: In vitro growth inhibition of H1703 tumor cells (MTT/CCK8); settings: in vitro growth inhibition (or induction of apoptosis), cells cultured 3 to 5 days, MTT (CCK8), read-out: IC50 H1703 (PDGFRa amp)
# H1581 (FGFR1 amp) = assay: In vitro growth inhibition of H1581 tumor cells (MTT/CCK8); settings: in vitro growth inhibition (or induction of apoptosis), cells cultured 3 to 5 days, MTT (CCK8), read-out: IC50 H1581 (FGFR1 amp)
# Kasumi-1 (KIT N822K) = assay: In vitro growth inhibition of Kasumi-1 tumor cells (MTT/CCK8); settings: in vitro growth inhibition (or induction of apoptosis), cells cultured 3 to 5 days, MTT (CCK8), read-out: IC50 Kasumi-1 (KIT N822K)
SMILES,"IC50 (Hep3B2 (FGFR3/4+++); Homo sapiens, Hep3B) [nM]","IC50 (MOLM-13 (FLT3-ITD); Homo sapiens, MOLM-13) [nM]","IC50 (KATO III (FGFR2 amp); Homo sapiens, KATO III) [nM]","IC50 (KCL-22 (BCR-ABL); Homo sapiens, KCL-22) [nM]","IC50 (Karpas 299 (NPM-ALK); Homo sapiens, KARPAS-299) [nM]","IC50 (H1703 (PDGFRa amp); Homo sapiens, NCI-H1703) [nM]","IC50 (H1581 (FGFR1 amp); Homo sapiens, NCI-H1581) [nM]","IC50 (Kasumi-1 (KIT N822K); Homo sapiens, Kasumi 1) [nM]",IC50 (Hep3B2 (FGFR3/4+++)) [nM],IC50 (MOLM-13 (FLT3-ITD)) [nM],IC50 (KATO III (FGFR2 amp)) [nM],IC50 (KCL-22 (BCR-ABL)) [nM],IC50 (Karpas 299 (NPM-ALK)) [nM],IC50 (H1703 (PDGFRa amp)) [nM],IC50 (H1581 (FGFR1 amp)) [nM],IC50 (Kasumi-1 (KIT N822K)) [nM]
"CNC(=O)c1cc2c(Oc3ccc(NC(=O)Nc4cc(C(C)(C)C)n[nH]4)c(Cl)c3Cl)ccnc2cc1OC [Compound 56, 4-{4-[3-(5-tert-butyl-2H-pyrazol-3-yl)-ureido]-2,3-dichloro-phenoxy}-7-methoxyquinol in-6-carboxylic acid methylamide]",17.6,2.87,0.28,1.4,39.2,18.9,3.66,1.07,–,–,–,–,–,–,–,–
"COc1cc2nccc(Oc3ccc(NC(=O)Nc4cc(C(C)(C)C)nn4C)c(C)c3C)c2cc1C(N)=O [Compound 110, 4-{4-[3-(5-tert-butyl-2-methyl-2H-pyrazol-3-yl)-ureido]-2,3-dimethyl-phenoxy}-7-methoxy-quinolin-6-carboxamide]",83.8,19.7,2.98,3.21,508,46.1,8.36,0.41,–,–,–,–,–,–,–,–
"CNC(=O)c1cc2c(Oc3ccc(NC(=O)Nc4cc(C(C)(C)C)nn4C)cc3C)ccnc2cc1OC [Compound 53, 4-{4-[3-(5-tert-butyl-2-methyl-2H-pyrazol-3-yl)-ureido]-2-methyl-phenoxy}-7-methoxy quinolin-6-carboxylate acid methylamide]",344,1.12,6.81,28.6,302,64,218,17.7,–,–,–,–,–,–,–,–
"COc1cc2nccc(Oc3ccc(NC(=O)Nc4cc(C(C)(C)C)nn4CCN4CCOCC4)c(Cl)c3)c2cc1C(N)=O [Compound 31, 4-(4-{3-[5-tert-butyl-2-(2-morpholin-4-yl-ethyl)-2H-pyrazol-3-yl]-ureido}-3-chloro-phenoxy)-7-methoxyquinolin-6-carboxamide]",32.9,9.45,0.12,51.2,465,25,23.4,40.4,–,–,–,–,–,–,–,–
"CNC(=O)c1cc2c(Oc3ccc(NC(=O)Nc4cc(C(C)(C)C)on4)c(Cl)c3)ccnc2cc1OC [Compound 14, 4-{4-[3-(5-tert-butyl-isoxazol-3-yl)-ureido]-3-chloro-phenoxy}-7-methoxyquinolin-6-carboxylic acid methylamide]",24.1,5.56,2.16,8.97,725,10.2,10.5,33.3,–,–,–,–,–,–,–,–
"CC(C)(C)c1cc(NC(=O)Nc2ccc(Oc3ccnc4cc(OCCN5CCCCC5)c(C(N)=O)cc34)c(Cl)c2Cl)[nH]n1 [Compound 96, 4-{4-[3-(5-tert-butyl-2H-pyrazol-3-yl)-ureido]-2,3-dichloro-phenoxy}-7-(2-piperidin-1-yl-ethoxy)-quinolin-6-carboxamide]",36.6,7.23,1.72,10.2,> 1000,45,38,31.4,–,–,–,–,–,–,–,–
"COc1cc2nccc(Oc3ccc(NC(=O)Nc4cc(C(C)(C)C)n[nH]4)cc3Cl)c2cc1NC(C)=O [Compound 101, N-(4-{4-[3-(5-tert-butyl-2H-pyrazol-3-yl)-ureido]-2-chloro-phenoxy}-7-methoxy-quinolin-6-yl)-acetamide]",110,0.08,2.34,11,64.3,61.3,9.56,24.1,–,–,–,–,–,–,–,–
"CC(C)(C)c1cc(NC(=O)Nc2ccc(Oc3ccnc4cc(OCCN5CCOCC5)c(C(N)=O)cc34)cc2Cl)[nH]n1 [Compound 81, 4-{4-[3-(5-tert-butyl-2H-pyrazol-3-yl)-ureido]-3-chloro-phenoxy}-7-(2-morpholin-4-yl-ethoxy) pyridine-6-carboxamide]",–,–,–,–,–,–,–,–,44.7,11.9,0.31,34.9,466,11.3,4.94,26.7
"CNC(=O)c1cc2c(Oc3ccc(NC(=O)Nc4cc(C(C)(C)C)n[nH]4)c(C(F)(F)F)c3)ccnc2cc1OC [Compound 51, 4-{4-[3-(5-tert-butyl-2H-pyrazol-3-yl)-ureido]-3-trifluoromethyl-phenoxy}-7-methoxyquinolin-6-carboxylic acid methylamide]",88,142,1.14,13,493,48.4,51.4,12.7,–,–,–,–,–,–,–,–
"COc1cc2nccc(Nc3ccc(NC(=O)Nc4cc(C(C)(C)C)n[nH]4)cc3Cl)c2cc1C(N)=O [Compound 97, 4-{4-[3-(5-tert-butyl-2H-pyrazol-3-yl)-ureido]-2-chloro-phenylamino}-7-methoxy-quinolin-6-carboxamide]",456,0.8,117,122,803,342,254,> 1000,–,–,–,–,–,–,–,–
"CNC(=O)c1cc2c(Oc3ccc(NC(=O)N4CCN(C)CC4)c(Cl)c3Cl)ccnc2cc1OCCOC [Compound 75, 4-{2,3-dichloro-4-[(4-methyl-piperazin-1-carbonyl)-amino]-phenoxy}-7-(2-methoxy-ethoxy)-quinolin-6-carboxylic acid methylamide]",> 1000,> 1000,> 1000,> 1000,> 1000,> 1000,> 1000,> 1000,–,–,–,–,–,–,–,–
"COc1cc2nccc(Oc3ccc(NC(=O)Nc4cc(C(C)(C)C)on4)c(Cl)c3)c2cc1NC(=O)C1CCCC1 [Compound 23, cyclopentane carboxylic acid (4-{4-[3-(5-tert-butyl-isoxazol-3-yl)-ureido]-3-chloro-phenoxy}-7-methoxyquinolin-6-yl)-amide]",214,94.9,10.5,436,> 1000,420,227,547,–,–,–,–,–,–,–,–
"COc1cc2nccc(Oc3ccc(NC(=O)Nc4cc(C(C)(C)C)on4)c(Cl)c3)c2cc1C(N)=O [Compound 2, 4-{4-[3-(5-tert-butyl-isoxazol-3-yl)-ureido]-3-chloro-phenoxy}-7-methoxyquinolin-6-carboxamide]",25.6,6.49,0.51,7.58,587,7.9,3.35,26.1,–,–,–,–,–,–,–,–
"COc1cc2nccc(Oc3ccc(NC(=O)Nc4cc(C5CC5)n[nH]4)c(Cl)c3)c2cc1C(N)=O [Compound 41, 4-{3-chloro-4-[3-(5-cyclopropyl-2H-pyrazol-3-yl)-ureido]-phenoxy}-7-methoxyquinolin-6-carboxamide]",514,134,40.1,353,> 1000,124,450,736,–,–,–,–,–,–,–,–
"CC(C)(C)c1cc(NC(=O)Nc2ccc(Oc3ccnc4c(F)cccc34)cc2Cl)no1 [Compound 113, 1-(5-tert-butyl-isoxazol-3-yl)-3-[2-chloro-4-(8-fluoro-quinolin-4-yloxy)-phenyl]-urea]",> 1000,> 500,498,> 1000,> 1000,568,> 1000,> 1000,–,–,–,–,–,–,–,–
